According to PubChem BioAssay (NCI):
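Compound exposure: 48 hours, 5 concentrations, 96-well plates. TGI: concentration producing complete growth inhibition.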

Key:
Assay in all cases: growth of human tumour cells (NCI), 48 h
CCRF-CEM leukemia = system: CCRF-CEM leukemia
NCI-H460 lung = system: NCI-H460 lung
MDA-N = system: MDA-N
UACC-62 melanoma = system: UACC-62 melanoma
SNB-19 CNS = system: SNB-19 CNS
PC-3 prostate = system: PC-3 prostate
A549 NSCLC = system: A549 NSCLC
NCI-H23 lung = system: NCI-H23 lung
HCT-15 colon = system: HCT-15 colon
786-0 renal = system: 786-0 renal
HCC-2998 colon = system: HCC-2998 colon
M14 melanoma = system: M14 melanoma
NCI-H522 lung = system: NCI-H522 lung
NCI/ADR-RES ovarian = system: NCI/ADR-RES ovarian
UO-31 renal = system: UO-31 renal
T-47D breast = system: T-47D breast
A498 renal = system: A498 renal
HOP-62 NSCLC = system: HOP-62 NSCLC
SK-MEL-5 melanoma = system: SK-MEL-5 melanoma
MDA-MB-231 breast = system: MDA-MB-231 breast
MDA-MB-435 = system: MDA-MB-435
OVCAR-5 ovarian = system: OVCAR-5 ovarian
HCT-116 colon = system: HCT-116 colon
MCF7 breast = system: MCF7 breast
IGROV1 ovarian = system: IGROV1 ovarian
NCI-H226 lung = system: NCI-H226 lung
OVCAR-4 ovarian = system: OVCAR-4 ovarian
CAKI-1 renal = system: CAKI-1 renal
BT-549 breast = system: BT-549 breast
HT29 colon = system: HT29 colon
SN12C renal = system: SN12C renal
HOP-92 NSCLC = system: HOP-92 NSCLC
RPMI-8226 leukemia = system: RPMI-8226 leukemia
OVCAR-8 ovarian = system: OVCAR-8 ovarian
HL-60(TB) leukemia = system: HL-60(TB) leukemia
U251 CNS = system: U251 CNS
ACHN renal = system: ACHN renal
SW-620 colon = system: SW-620 colon
SK-MEL-28 melanoma = system: SK-MEL-28 melanoma
LOX IMVI melanoma = system: LOX IMVI melanoma
EKVX NSCLC = system: EKVX NSCLC
KM12 colon = system: KM12 colon
SK-OV-3 ovarian = system: SK-OV-3 ovarian
K-562 leukemia = system: K-562 leukemia
SK-MEL-2 melanoma = system: SK-MEL-2 melanoma
RXF 393 renal = system: RXF 393 renal
OVCAR-3 ovarian = system: OVCAR-3 ovarian
COLO 205 colon = system: COLO 205 colon
SF-268 CNS = system: SF-268 CNS
MOLT-4 leukemia = system: MOLT-4 leukemia
TK-10 renal = system: TK-10 renal
SR leukemia = system: SR leukemia
UACC-257 melanoma = system: UACC-257 melanoma
DU-145 prostate = system: DU-145 prostate
SNB-75 CNS = system: SNB-75 CNS
HS 578T breast = system: HS 578T breast
MALME-3M melanoma = system: MALME-3M melanoma
SF-295 CNS = system: SF-295 CNS
SF-539 CNS = system: SF-539 CNS

O=C(NCc1ccccc1)c1cc2ccccc2oc1=Nc1ccccc1F
TGI (CCRF-CEM leukemia): > 100 µM
TGI (NCI-H460 lung): > 100 µM
TGI (MDA-N): > 100 µM
TGI (UACC-62 melanoma): > 100 µM
TGI (SNB-19 CNS): > 100 µM
TGI (PC-3 prostate): > 100 µM
TGI (A549 NSCLC): 88.7 µM
TGI (NCI-H23 lung): 57.5 µM
TGI (HCT-15 colon): > 100 µM
TGI (786-0 renal): 24.1 µM
TGI (HCC-2998 colon): 61.5 µM
TGI (M14 melanoma): > 100 µM
TGI (NCI-H522 lung): > 100 µM
TGI (NCI/ADR-RES ovarian): > 100 µM
TGI (UO-31 renal): 36.1 µM
TGI (T-47D breast): > 100 µM
TGI (A498 renal): > 100 µM
TGI (HOP-62 NSCLC): 39.8 µM
TGI (SK-MEL-5 melanoma): 51.9 µM
TGI (MDA-MB-231 breast): 47.3 µM
TGI (MDA-MB-435): > 100 µM
TGI (OVCAR-5 ovarian): > 100 µM
TGI (HCT-116 colon): > 100 µM
TGI (MCF7 breast): > 100 µM
TGI (IGROV1 ovarian): > 100 µM
TGI (NCI-H226 lung): 92.2 µM
TGI (OVCAR-4 ovarian): 76.7 µM
TGI (CAKI-1 renal): 27.9 µM
TGI (BT-549 breast): > 100 µM
TGI (HT29 colon): > 100 µM
TGI (SN12C renal): 96.3 µM
TGI (HOP-92 NSCLC): > 100 µM
TGI (RPMI-8226 leukemia): > 100 µM
TGI (OVCAR-8 ovarian): 31.2 µM
TGI (HL-60(TB) leukemia): > 100 µM
TGI (U251 CNS): > 100 µM
TGI (ACHN renal): 58.3 µM
TGI (SW-620 colon): > 100 µM
TGI (SK-MEL-28 melanoma): > 100 µM
TGI (LOX IMVI melanoma): 37.3 µM
TGI (EKVX NSCLC): > 100 µM
TGI (KM12 colon): > 100 µM
TGI (SK-OV-3 ovarian): 47.5 µM
TGI (K-562 leukemia): > 100 µM
TGI (SK-MEL-2 melanoma): > 100 µM
TGI (RXF 393 renal): 84.5 µM
TGI (OVCAR-3 ovarian): > 100 µM
TGI (COLO 205 colon): 74.4 µM
TGI (SF-268 CNS): > 100 µM
TGI (MOLT-4 leukemia): > 100 µM
TGI (TK-10 renal): 36.7 µM
TGI (SR leukemia): > 100 µM
TGI (UACC-257 melanoma): > 100 µM
TGI (DU-145 prostate): > 100 µM
TGI (SNB-75 CNS): 45.5 µM
TGI (HS 578T breast): > 100 µM
TGI (MALME-3M melanoma): > 100 µM
TGI (SF-295 CNS): > 100 µM

Cc1ncc(-c2nnnn2-c2ccccc2)c(C(=O)O)n1
TGI (CCRF-CEM leukemia): > 100 µM
TGI (NCI-H460 lung): > 100 µM
TGI (MDA-N): > 100 µM
TGI (UACC-62 melanoma): > 100 µM
TGI (SNB-19 CNS): > 100 µM
TGI (PC-3 prostate): > 100 µM
TGI (A549 NSCLC): > 100 µM
TGI (NCI-H23 lung): > 100 µM
TGI (HCT-15 colon): > 100 µM
TGI (786-0 renal): > 100 µM
TGI (HCC-2998 colon): > 100 µM
TGI (M14 melanoma): > 100 µM
TGI (NCI-H522 lung): > 100 µM
TGI (NCI/ADR-RES ovarian): > 100 µM
TGI (UO-31 renal): > 100 µM
TGI (T-47D breast): > 100 µM
TGI (A498 renal): > 100 µM
TGI (HOP-62 NSCLC): > 100 µM
TGI (SF-539 CNS): > 100 µM
TGI (SK-MEL-5 melanoma): > 100 µM
TGI (MDA-MB-231 breast): > 100 µM
TGI (MDA-MB-435): > 100 µM
TGI (OVCAR-5 ovarian): > 100 µM
TGI (HCT-116 colon): > 100 µM
TGI (MCF7 breast): > 100 µM
TGI (IGROV1 ovarian): > 100 µM
TGI (NCI-H226 lung): > 100 µM
TGI (CAKI-1 renal): > 100 µM
TGI (BT-549 breast): > 100 µM
TGI (HT29 colon): > 100 µM
TGI (SN12C renal): > 100 µM
TGI (HOP-92 NSCLC): > 100 µM
TGI (RPMI-8226 leukemia): > 100 µM
TGI (OVCAR-8 ovarian): > 100 µM
TGI (HL-60(TB) leukemia): > 100 µM
TGI (U251 CNS): > 100 µM
TGI (ACHN renal): > 100 µM
TGI (SW-620 colon): > 100 µM
TGI (SK-MEL-28 melanoma): > 100 µM
TGI (LOX IMVI melanoma): > 100 µM
TGI (EKVX NSCLC): > 100 µM
TGI (KM12 colon): > 100 µM
TGI (SK-OV-3 ovarian): > 100 µM
TGI (K-562 leukemia): > 100 µM
TGI (SK-MEL-2 melanoma): > 100 µM
TGI (RXF 393 renal): > 100 µM
TGI (OVCAR-3 ovarian): > 100 µM
TGI (COLO 205 colon): > 100 µM
TGI (SF-268 CNS): > 100 µM
TGI (MOLT-4 leukemia): > 100 µM
TGI (TK-10 renal): > 100 µM
TGI (SR leukemia): > 100 µM
TGI (UACC-257 melanoma): > 100 µM
TGI (DU-145 prostate): > 100 µM
TGI (SNB-75 CNS): > 100 µM
TGI (HS 578T breast): > 100 µM
TGI (MALME-3M melanoma): > 100 µM
TGI (SF-295 CNS): > 100 µM

CCOC(NC(=O)CC)(C(F)(F)F)C(F)(F)F
TGI (CCRF-CEM leukemia): > 100 µM
TGI (NCI-H460 lung): > 100 µM
TGI (MDA-N): > 100 µM
TGI (UACC-62 melanoma): > 100 µM
TGI (SNB-19 CNS): > 100 µM
TGI (PC-3 prostate): > 100 µM
TGI (A549 NSCLC): > 100 µM
TGI (NCI-H23 lung): > 100 µM
TGI (HCT-15 colon): > 100 µM
TGI (786-0 renal): > 100 µM
TGI (HCC-2998 colon): > 100 µM
TGI (M14 melanoma): > 100 µM
TGI (NCI-H522 lung): > 100 µM
TGI (NCI/ADR-RES ovarian): > 100 µM
TGI (UO-31 renal): > 100 µM
TGI (T-47D breast): > 100 µM
TGI (A498 renal): > 100 µM
TGI (HOP-62 NSCLC): > 100 µM
TGI (SF-539 CNS): > 100 µM
TGI (SK-MEL-5 melanoma): > 100 µM
TGI (MDA-MB-231 breast): > 100 µM
TGI (MDA-MB-435): > 100 µM
TGI (OVCAR-5 ovarian): > 100 µM
TGI (HCT-116 colon): > 100 µM
TGI (MCF7 breast): > 100 µM
TGI (IGROV1 ovarian): > 100 µM
TGI (NCI-H226 lung): > 100 µM
TGI (CAKI-1 renal): > 100 µM
TGI (BT-549 breast): > 100 µM
TGI (HT29 colon): > 100 µM
TGI (SN12C renal): > 100 µM
TGI (HOP-92 NSCLC): > 100 µM
TGI (RPMI-8226 leukemia): > 100 µM
TGI (OVCAR-8 ovarian): > 100 µM
TGI (HL-60(TB) leukemia): > 100 µM
TGI (U251 CNS): > 100 µM
TGI (ACHN renal): > 100 µM
TGI (SW-620 colon): > 100 µM
TGI (SK-MEL-28 melanoma): > 100 µM
TGI (LOX IMVI melanoma): > 100 µM
TGI (EKVX NSCLC): > 100 µM
TGI (KM12 colon): > 100 µM
TGI (SK-OV-3 ovarian): > 100 µM
TGI (K-562 leukemia): > 100 µM
TGI (SK-MEL-2 melanoma): > 100 µM
TGI (RXF 393 renal): 61.2 µM
TGI (OVCAR-3 ovarian): > 100 µM
TGI (COLO 205 colon): > 100 µM
TGI (SF-268 CNS): > 100 µM
TGI (MOLT-4 leukemia): > 100 µM
TGI (TK-10 renal): > 100 µM
TGI (SR leukemia): > 100 µM
TGI (UACC-257 melanoma): > 100 µM
TGI (DU-145 prostate): > 100 µM
TGI (SNB-75 CNS): > 100 µM
TGI (HS 578T breast): > 100 µM
TGI (MALME-3M melanoma): > 100 µM
TGI (SF-295 CNS): > 100 µM
